In the OPERA property sets (Mansouri et al. 2018):

`CC(=O)Nc1cc(C(F)(F)F)ccc1Cl` and `CC(=O)Nc1cc(C(F)(F)F)ccc1F` are the same in logP: 2.24 for the first, 2.24 for the second.

Going from `NC(=O)c1c(Cl)cccc1Cl` to `CC(=O)Nc1c(Cl)cccc1Cl`, the logP rises from 0.77 to 1.32.

`NC(=O)c1ccccc1F` and `NC(=O)c1ccccc1Cl` are within 0.2 log units of each other in logP: 0.59 for the first, 0.64 for the second.

First: CC(=O)Nc1c(C(C)C)cccc1C(C)C
Second: CC(=O)Nc1c(F)cccc1F
The logP of the first is higher: 2.41 for the first, 0.69 for the second.

First: CC(=O)Nc1ccccc1I
Second: CC(=O)Nc1ccccc1F
The logP of the first is higher: 1.62 for the first, 1.03 for the second.

Compared with `CC(=O)Nc1ccc(Br)c(Cl)c1F`, `CC(=O)Nc1ccc(Cl)cc1F` is lower in logP: 2.86 for the first, 1.91 for the second.

Going from `CC(=O)Nc1cc(Cl)ccc1C` to `CC(=O)Nc1cc(Cl)ccc1Cl`, the logP rises from 1.82 to 2.19.

First: COc1ccc(NC(C)=O)c([N+](=O)[O-])c1
Second: CCCCc1ccc(NC(C)=O)c([N+](=O)[O-])c1
The logP of the first is lower: 1.09 for the first, 3.1 for the second.

First: CC(=O)Nc1ccc(Cl)cc1Cl
Second: CC(=O)Nc1cc(Cl)cc(Cl)c1Br
The logP of the first is lower: 2.18 for the first, 3.04 for the second.

Going from `CCc1ccccc1C(N)=O` to `Cc1ccccc1C(N)=O`, the logP falls from 1.17 to 0.76.

Going from `CCCc1cc(NC(C)=O)ccc1OC` to `COc1ccc(NC(C)=O)cc1Cl`, the logP falls from 2.72 to 1.81.

First: CC(=O)Nc1ccccc1-c1ccccc1
Second: CC(=O)Nc1ccccc1Oc1ccccc1
The logP of the first is lower: 2.02 for the first, 2.37 for the second.

Going from `CC(=O)Nc1ccc(C(N)=O)cc1` to `CCc1ccc(NC(C)=O)cc1`, the logP rises from 0.01 to 2.2.

Compared with `CC(=O)Nc1cccc(Cl)c1C`, `COc1cccc(NC(C)=O)c1C` is lower in logP: 1.82 for the first, 1.13 for the second.

Going from `CCc1ccccc1OC` to `COc1ccccc1Cl`, the logP falls from 3.18 to 2.68.

Compared with `CCc1ccccc1NC(C)=O`, `CCc1cc(Br)ccc1NC(C)=O` is higher in logP: 1.32 for the first, 2.27 for the second.

Compared with `CCCCc1ccc(NC(C)=O)c(C)c1`, `CCCCc1ccc(NC(C)=O)cc1C` is higher in logP: 3.1 for the first, 3.64 for the second.

First: CC(=O)Nc1ccc(Br)cc1C
Second: CC(=O)Nc1ccc(C)cc1C
The logP of the first is higher: 2.03 for the first, 1.46 for the second.

Going from `Cc1cccc([N+](=O)[O-])c1C(N)=O` to `COc1cccc([N+](=O)[O-])c1C(N)=O`, the logP falls from 0.1 to -0.26.

Compared with `COc1cc(Br)ccc1NC(C)=O`, `CC(=O)Nc1ccc(C)c(Cl)c1` is higher in logP: 2.02 for the first, 2.69 for the second.

First: CCCCc1ccc(NC(C)=O)cc1
Second: CC(=O)Nc1cccc(Cl)c1
The logP of the first is higher: 3.3 for the first, 2.15 for the second.

`NC(=O)c1ccccc1Br` and `NC(=O)c1ccccc1I` are within 0.2 log units of each other in logP: 0.77 for the first, 0.93 for the second.

Compared with `NC(=O)c1ccccc1C(F)(F)F`, `CC(=O)Nc1ccccc1C(F)(F)F` is higher in logP: 0.68 for the first, 1.17 for the second.

`CC(=O)Nc1cc(C(F)(F)F)cc(Cl)c1Cl` and `CC(=O)Nc1cc(C(F)(F)F)c(Cl)cc1Cl` are within 0.2 log units of each other in logP: 3.27 for the first, 3.24 for the second.

`CC(=O)Nc1cc(Cl)cc(C(F)(F)F)c1Br` and `CC(=O)Nc1cc(Br)cc(C(F)(F)F)c1Cl` are within 0.2 log units of each other in logP: 3.26 for the first, 3.41 for the second.

First: COc1cccc(OC)c1C(N)=O
Second: COc1cccc([N+](=O)[O-])c1C
The logP of the first is lower: -0.22 for the first, 2.68 for the second.

`N#Cc1ccccc1[N+](=O)[O-]` and `N#Cc1ccccc1C#N` are within 0.2 log units of each other in logP: 1.02 for the first, 0.99 for the second.

First: CC(=O)Nc1c(F)ccc(C(F)(F)F)c1Br
Second: CC(=O)Nc1cc(C(F)(F)F)c(Br)cc1F
The logP of the first is lower: 2.22 for the first, 3.17 for the second.

Going from `CC(=O)Nc1cc([N+](=O)[O-])c(Br)cc1F` to `CC(=O)Nc1cccc([N+](=O)[O-])c1`, the logP falls from 2.11 to 1.47.

First: COc1ccc(C)c(OC)c1
Second: CC(=O)Nc1cc(C)c(C)c(C)c1
The logP of the first is higher: 2.76 for the first, 2.5 for the second.

First: CC(=O)Nc1cc(C(F)(F)F)cc(C(F)(F)F)c1
Second: CC(=O)Nc1cc(Cl)cc(Cl)c1
The logP of the first is higher: 3.72 for the first, 3.17 for the second.

Compared with `CC(=O)Nc1cc(OC(F)(F)F)c(Cl)cc1Cl`, `CC(=O)Nc1c(C)cc(Br)cc1C` is lower in logP: 3.71 for the first, 2.12 for the second.

Compared with `CC(C)(C)c1ccc(C(N)=O)cc1`, `NC(=O)c1c(Br)cccc1Br` is lower in logP: 2.51 for the first, 1 for the second.

`NC(=O)c1c(F)cccc1Br` gave a logP of 0.63.
